From article PMC9354084 (ACS Chemical Neuroscience, 2022)
Where two headings read alike, the source gives them in different places.

Assays:
[1] = PAMPA-BBB permeability assay; conditions: for Papp: PAMPA, PAMPA-BBB; for CNS prediction: predicted from PAMPA Pe
[2] = test system: primary cerebellar granule neurons (CGNs); assay: Neuroprotection on glutamate-mediated excitotoxicity in CGNs (MTT); conditions: 100 μM glutamate; for reversal of glutamate-mediated excitotoxicity: CGNs
hMAO-A = target: T1, hMAO-A (Homo sapiens, UniProt P21397); assay: hMAO-A inhibitory activity (kynuramine, spectrophotometric); format: biochemical; conditions: for inhibition at 10 µM: read-out: hMAO-A inhibition at the highest concentration tested
T1 sequence (P21397 1-527): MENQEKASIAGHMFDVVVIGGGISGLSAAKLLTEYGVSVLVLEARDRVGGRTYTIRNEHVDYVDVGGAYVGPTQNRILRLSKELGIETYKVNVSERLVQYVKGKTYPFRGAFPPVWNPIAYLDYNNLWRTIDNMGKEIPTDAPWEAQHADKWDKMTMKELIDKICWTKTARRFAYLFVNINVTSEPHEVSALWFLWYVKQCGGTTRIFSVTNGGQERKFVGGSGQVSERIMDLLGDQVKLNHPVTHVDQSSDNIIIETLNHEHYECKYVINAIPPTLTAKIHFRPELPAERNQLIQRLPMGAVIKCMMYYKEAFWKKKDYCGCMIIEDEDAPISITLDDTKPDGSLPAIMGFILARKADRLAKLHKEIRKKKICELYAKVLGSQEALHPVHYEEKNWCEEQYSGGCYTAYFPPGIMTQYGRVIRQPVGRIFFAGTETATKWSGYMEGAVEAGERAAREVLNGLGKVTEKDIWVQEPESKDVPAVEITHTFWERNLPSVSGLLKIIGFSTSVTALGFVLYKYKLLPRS

hMAO-B = target: T2, hMAO-B (Homo sapiens, UniProt P27338); assay: hMAO-B inhibitory activity (kynuramine, spectrophotometric); format: biochemical; conditions: for inhibition at 10 µM: read-out: hMAO-B inhibition at the highest concentration tested; for SI: hMAO-B selectivity index = IC50 (hMAO-A)/IC50 (hMAO-B): bounds assume IC50 = 10 µM for inactive isoform
T2 sequence (P27338 1-520): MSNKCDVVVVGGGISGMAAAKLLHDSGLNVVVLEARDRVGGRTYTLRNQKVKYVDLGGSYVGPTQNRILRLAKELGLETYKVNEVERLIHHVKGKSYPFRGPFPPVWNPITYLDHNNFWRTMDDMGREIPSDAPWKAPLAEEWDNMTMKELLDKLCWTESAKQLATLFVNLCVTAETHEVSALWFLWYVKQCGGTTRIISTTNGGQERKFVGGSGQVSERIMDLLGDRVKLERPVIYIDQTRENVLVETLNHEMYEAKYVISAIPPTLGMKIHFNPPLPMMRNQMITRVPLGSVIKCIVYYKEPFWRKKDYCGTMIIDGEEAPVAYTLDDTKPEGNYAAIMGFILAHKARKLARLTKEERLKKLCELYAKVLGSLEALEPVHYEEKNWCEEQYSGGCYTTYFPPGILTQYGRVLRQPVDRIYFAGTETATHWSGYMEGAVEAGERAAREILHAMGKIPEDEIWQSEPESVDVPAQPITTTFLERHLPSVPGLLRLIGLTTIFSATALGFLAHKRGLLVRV

LH5 lymphoblasts = assay: Antioxidant activity after menadione in healthy lymphoblasts; format: cell-based, human; conditions: LH5, 10 μM menadione 3 h, 10 µM compound pretreatment 21 h
[3] = test system: iNOS expression in N9 microglial cells; assay: Immunomodulation in LPS-insulted N9 microglia, iNOS Western blot; format: cell-based; conditions: LPS-insulted N9, 10 μM
[4] = test system: Bcl-2 expression in N9 microglial cells; assay: Antiapoptotic effects in LPS-insulted N9 microglia, Bcl-2 Western blot; format: cell-based
CK-1δ [5] = target: T3, CK-1δ (Homo sapiens, UniProt P48730); conditions: cited from earlier work
T3 construct: amino acids 1–294; GST (N); purchased Merck Millipore
T3 sequence (P48730 1-294): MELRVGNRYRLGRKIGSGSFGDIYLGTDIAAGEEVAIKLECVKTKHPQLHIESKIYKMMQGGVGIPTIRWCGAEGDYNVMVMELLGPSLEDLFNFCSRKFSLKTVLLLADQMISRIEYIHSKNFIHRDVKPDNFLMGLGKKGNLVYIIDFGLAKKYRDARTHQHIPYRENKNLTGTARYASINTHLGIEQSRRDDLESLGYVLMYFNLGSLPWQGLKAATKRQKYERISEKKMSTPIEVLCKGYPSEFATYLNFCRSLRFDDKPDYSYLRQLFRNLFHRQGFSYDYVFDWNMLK

[6] = Antioxidant activity after menadione in healthy lymphoblasts; format: cell-based, human; conditions: human, LH5 lymphoblast-derived cell line, read-out: cell viability after menadione insult
[7] = Antioxidant activity after menadione in ALS patient lymphoblasts; format: cell-based, human; conditions: human, LPS5 lymphoblast-derived cell line; LPS5, 50 μM menadione; read-out: cell viability after menadione insult
LPS5 lymphoblasts [8] = assay: as above; format: cell-based, human; conditions: for rescue of cell viability after menadione: LPS5, 10 μM menadione 3 h, 10 µM compound pretreatment 21 h
CK-1δ [9] = target: T3, CK-1δ; assay: CK-1δ activity assay (KinaseGlo luminescence); format: biochemical; conditions: read-out: residual CK-1δ activity (%)
Method: CK-1δ activity assay. Compounds were evaluated towards CK-1δ (Merck Millipore, recombinant human, amino acids 1–294, with N-terminal GST-tagged) with the KinaseGloR luminescence assay (Promega) […]
following procedures reported in literature.10 In detail, luminescent assays were performed in black 96-well plates, using a buffer composed of: 50 mM HEPES (pH 7.5), 1 mM EDTA, 1 mM EGTA, and 15 mM […]
solution was used as a negative control. In a typical assay, 10 μL of inhibitor solution (obtained using a 10 mM DMSO solution diluted in assay buffer to 160 μM that corresponds to a final concentration of 40 μM in the assay) and 10 μL (16 ng of CK1δ) of enzyme solution were added to the well, followed by 20 μL of assay buffer containing 0.1% casein substrate and 4 μM ATP. The final DMSO concentration in the reaction […]
After 60 min of incubation at 30 °C for CK1δ the enzymatic reactions were stopped with 40 μL of Kinase-Glo reagent (Promega). Luminescence signal (relative light unit,RLU) was recorded after 10 min at 25 °C using Tecan Infinite M100. The activity is proportional to the difference of the total and consumed ATP. The residual activities of the enzyme were calculated on the basis of maximal activities measured in the absence of inhibitor. Data were analyzed using Excel and percentages of enzyme residual activity are reported as means ± standard deviation of two independent experiments performed in […]

[10] = PAMPA
LPS5 lymphoblasts [11] = assay: Cell viability in mutSOD1 lymphoblasts (resazurin reduction); format: cell-based, human; conditions: LPS5 (mutSOD1), 1, 10, 100 µM, 24 h
[12] = pH 7.4, Pe, in vitro permeability coefficient, PBS pH 7.4, Pe ± SEM
[13] = Table S3, mean ± SD, highest concentration 10 µM, read-out: IC50 hMAO-A
[14] = Table S3, mean ± SD, highest concentration 10 µM, read-out: IC50 hMAO-B
[15] = pH 7.4, permeability coefficient (Pe)

Row | SMILES | Papp [1, 12] [×10⁻⁶ cm/s] | inhibition at 10 µM (hMAO-A) [%] | IC50 (hMAO-A; [13]) [µM] | inhibition at 10 µM (hMAO-B) [%] | IC50 (hMAO-B; [14]) [µM] | remaining activity at 40 µM (CK-1δ [9]) [%] | CNS prediction [1] | other results
1 | CO/N=C(\C(=O)N[C@@H]1C(=O)N2C(C(=O)O)=C(COC(N)=O)CS[C@H]12)c1ccco1 [cefuroxime, reference compound] | 0.62 ± 0.16 | – | – | – | – | – | CNS - (CNS -: low BBB permeation predicted, Pe (×10-6 cm s-1) < 2.0) | –
2 | N[C@@H](CCC(=O)O)C(=O)O [glutamate, reference compound] | – | – | – | – | – | – | – | viability of CGNs exposed to glutamate ([2]; compared with the control): 80%
3 | C#CCNc1nc2c(s1)CC(N(CC#C)C(C)=O)CC2 (centres unmarked) [Compound 8] | 4.6 ± 0.6 | < 50 | > 10 | < 50 | > 10 | – | CNS + (CNS +: high BBB permeation predicted, Pe (×10-6 cm s-1) > 4.0) | Papp [1, 15]: 4.6 ± 0.6 ×10⁻⁶ cm/s
4 | CC1=CC(=O)c2ccccc2C1=O [menadione, 2-methyl-1,4-naphthoquinone, reference compound] | – | – | – | – | – | – | – | viability at 3 h, 10 µM ([6]; LH5, 10 μM menadione): 80%; viability at 3 h, 50 µM ([6]; LH5, 50 μM menadione): ~40%; viability at 3 h, 50 µM [7]: ~80%; cytotoxic effect of menadione (LPS5 lymphoblasts [8]; LPS5, 10 μM menadione): unable to cause a cytotoxic effect
5 | C#CCN[C@@H]1CCc2ccccc21 [Compound 2, rasagiline, reference compound] | – | – | – | – | – | – | – | iNOS expression [3]: moderate decrease of iNOS expression; Bcl-2 expression ([4]; LPS-insulted N9, 1 or 10 μM): increased the level of the anti-apoptotic Bcl-2 marker
6 | C#CCNCc1ccc2nc(N)sc2c1 [Compound 4] | 9.3 ± 0.1 | < 50 | > 10 | < 50 | > 10 | 69 | CNS + (CNS +: high BBB permeation predicted, Pe (×10-6 cm s-1) > 4.0) | –
7 | CCN(C)C(=O)Oc1cccc([C@H](C)N(C)C)c1 [rivastigmine] | – | – | – | – | – | – | – | CNS prediction [10]: CNS + (key: CNS +: high BBB permeation predicted, Pe (×10-6 cm s-1) > 4.0; CNS -: low BBB permeation predicted, Pe (×10-6 cm s-1) < 2.0)
8 | CC[C@H](CO)Nc1nc(NCc2ccc(-c3ccccn3)cc2)c2ncn(C(C)C)c2n1 [CR8] | – | – | – | – | – | – | – | IC50 (CK-1δ [5]; read-out: IC50 (positive control)): 0.4 µM
9 | C#CCNc1nc2ccc(N(CC#C)C(C)=O)cc2s1 [Compound 6] | 10.2 ± 0.25 | – | 6.88 ± 0.46 | – | > 10 | 85.2 | CNS + (CNS +: high BBB permeation predicted, Pe (×10-6 cm s-1) > 4.0) | IC50 (hMAO-A; read-out: hMAO-A IC50): 6.9 µM; SI: hMAO-B selectivity index = IC50 (hMAO-A)/IC50 (hMAO-B) (hMAO-B): < 0.69; cytotoxic effects, cell viability (LPS5 lymphoblasts [11]): no toxicity; rescue of cell viability after menadione (LH5 lymphoblasts): a better restorative activity trend than the combination; rescue of cell viability after menadione (LPS5 lymphoblasts [8]): no significant effects; reduction of iNOS level [3]: about 60%; Bcl-2 expression ([4]; LPS-insulted N9, 10 μM): not evident; Bcl-2 expression ([4]; LPS-insulted N9, 1 or 10 μM): no increase in the level of the Bcl-2 anti-apoptotic marker; Papp [1, 15]: 10.1 ± 0.2 ×10⁻⁶ cm/s; reversal of glutamate-mediated excitotoxicity ([2]; compound at 1 and 10 μM): restored viability

Continued, in another order:

Row | Papp [1, 12] [×10⁻⁶ cm/s] | inhibition at 10 µM (hMAO-A) [%] | IC50 (hMAO-A; [13]) [µM] | inhibition at 10 µM (hMAO-B) [%] | IC50 (hMAO-B; [14]) [µM] | remaining activity at 40 µM (CK-1δ [9]) [%] | SMILES | CNS prediction [1] | other results
10 | – | – | 8.71 ± 0.81 | – | > 10 | – | Nc1nc2ccc(OC(F)(F)F)cc2s1 [Compound 1, riluzole, reference compound] | – | IC50 (hMAO-A; read-out: hMAO-A IC50): 8.7 µM; rescue of cell viability after menadione (LH5 lymphoblasts): a viability recovery trend; iNOS expression [3]: moderate decrease of iNOS expression; Bcl-2 expression ([4]; LPS-insulted N9, 1 or 10 μM): increased the level of the anti-apoptotic Bcl-2 marker; IC50 (CK-1δ [5]; read-out: IC50 against CK1δ): 16.1 µM
11 | 24.9 ± 0.25 | < 50 | > 10 | < 50 | > 10 | 64.4 | C#CCN(CC#C)Cc1ccc2nc(N)sc2c1 [Compound 3] | CNS + (CNS +: high BBB permeation predicted, Pe (×10-6 cm s-1) > 4.0) | melting point: 148 °C
12 | 7.7 ± 1 | < 50 | > 10 | < 50 | > 10 | – | C#CCNC1CCc2nc(N)sc2C1 (centres unmarked) [Compound 7] | CNS + (CNS +: high BBB permeation predicted, Pe (×10-6 cm s-1) > 4.0) | Papp [1, 15]: 7.7 ± 1 ×10⁻⁶ cm/s
13 | 22.7 ± 0.6 | – | 2.73 ± 0.39 | – | 9.31 ± 1.57 | 83.7 | C#CCN(C)Cc1ccc2nc(N)sc2c1 [Compound 5] | CNS + (CNS +: high BBB permeation predicted, Pe (×10-6 cm s-1) > 4.0) | IC50 (hMAO-A; read-out: hMAO-A IC50): 2.7 ± 0.4 µM; SI: hMAO-B selectivity index = IC50 (hMAO-A)/IC50 (hMAO-B) (hMAO-B): 0.29; IC50 (hMAO-B; read-out: hMAO-B IC50): 9.3 ± 1.6 µM; rescue of cell viability after menadione (LH5 lymphoblasts): a better restorative activity trend than the combination; rescue of cell viability after menadione (LPS5 lymphoblasts [8]): no significant effects; Bcl-2 expression ([4]; LPS-insulted N9, 10 μM): a trend of recovery in Bcl-2 expression; reversal of glutamate-mediated excitotoxicity ([2]; compound 1, 10, 25 μM): no significant changes
